Measurements from publication PMC3402541, “Guanidylation and Tail Effects in Cationic Antimicrobial Lipopeptoids” (PLoS ONE, 2012).

How the values were obtained:
S.aureus ATCC 29213 = format: cell-based, Staphylococcus aureus; conditions: ATCC 29213, Mueller-Hinton broth, 24 hr, 37°C, without replication; for MIC S.aureus in the presence of 4% bovine serum albumin: 4% BSA added, macrobroth dilution; for MIC S.aureus: CLSI macrobroth dilution, 5 x 10^5 CFU/mL
Summary of the method: (§1)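 Twofold dilution series in CAMHB; inoculum ≈5 x 10^5 CFU/mL checked by colony counts; 24 hr, 37°C, ambient air; MIC by visual reading of tubes.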

MRSA ATCC 33592 = format: cell-based, methicillin-resistant S. aureus; conditions: ATCC 33592, Mueller-Hinton broth, 24 hr, 37°C, without replication; for MIC MRSA in the presence of 4% bovine serum albumin: 4% BSA added, macrobroth dilution; for MIC MRSA: CLSI macrobroth dilution, 5 x 10^5 CFU/mL
Summary of the method: as §1

MSSE 81388 CANWARD 2008 = format: cell-based, methicillin-susceptible S. epidermidis; conditions: 81388 CANWARD 2008, Mueller-Hinton broth, 24 hr, 37°C, without replication; for MIC MSSE in the presence of 4% bovine serum albumin: 4% BSA added, macrobroth dilution; for MIC MSSE: CLSI macrobroth dilution, 5 x 10^5 CFU/mL
Summary of the method: as §1

MRSE CAN-ICU 61589 = format: cell-based, methicillin-resistant S. epidermidis; conditions: CAN-ICU 61589, Mueller-Hinton broth, 24 hr, 37°C, without replication; for MIC MRSE in the presence of 4% bovine serum albumin: 4% BSA added, macrobroth dilution; for MIC MRSE: CLSI macrobroth dilution, 5 x 10^5 CFU/mL
Summary of the method: as §1

E. faecalis ATCC 29212 = format: cell-based, Enterococcus faecalis; conditions: ATCC 29212, Mueller-Hinton broth, 24 hr, 37°C, without replication; for MIC E. faecalis in the presence of 4% bovine serum albumin: 4% BSA added, macrobroth dilution; for MIC E. faecalis: CLSI macrobroth dilution, 5 x 10^5 CFU/mL
Summary of the method: as §1

S.pneumoniae ATCC 49619 = format: cell-based, Streptococcus pneumoniae; conditions: ATCC 49619, Mueller-Hinton broth, 24 hr, 37°C, without replication; for MIC S.pneumoniae in the presence of 4% bovine serum albumin: 4% BSA added, macrobroth dilution; for MIC S.pneumoniae: CLSI macrobroth dilution, 5 x 10^5 CFU/mL
Summary of the method: as §1

P.aeruginosa ATCC 27853 = format: cell-based, Pseudomonas aeruginosa; conditions: ATCC 27853, Mueller-Hinton broth, 24 hr, 37°C, without replication; for MIC P.aeruginosa in the presence of 4% bovine serum albumin: 4% BSA added, macrobroth dilution; for MIC P.aeruginosa: CLSI macrobroth dilution, 5 x 10^5 CFU/mL
Summary of the method: as §1

[1] = tested on: P.aeruginosa CAN-ICU 62308; format: cell-based, Pseudomonas aeruginosa; conditions: CAN-ICU 62308, Mueller-Hinton broth, 24 hr, 37°C, without replication; for MIC P.aeruginosa in the presence of 4% bovine serum albumin: 4% BSA added, macrobroth dilution; for MIC P.aeruginosa: CLSI macrobroth dilution, 5 x 10^5 CFU/mL
Summary of the method: as §1

[2] = tested on: S. maltophilia CAN-ICU 62584; format: cell-based, Stenotrophomonas maltophilia; conditions: CAN-ICU 62584, Mueller-Hinton broth, 24 hr, 37°C, without replication; for MIC S. maltophilia in the presence of 4% bovine serum albumin: 4% BSA added, macrobroth dilution; for MIC S. maltophilia: CLSI macrobroth dilution, 5 x 10^5 CFU/mL
Summary of the method: as §1

[3] = tested on: A. baumannii CAN-ICU 63169; format: cell-based, Acinetobacter baumannii; conditions: CAN-ICU 63169, Mueller-Hinton broth, 24 hr, 37°C, without replication; for MIC A. baumannii in the presence of 4% bovine serum albumin: 4% BSA added, macrobroth dilution; for MIC A. baumannii: CLSI macrobroth dilution, 5 x 10^5 CFU/mL
Summary of the method: as §1

K.pneumoniae ATCC 13883 = format: cell-based, Klebsiella pneumoniae; conditions: ATCC 13883, Mueller-Hinton broth, 24 hr, 37°C, without replication; for MIC K.pneumoniae in the presence of 4% bovine serum albumin: 4% BSA added, macrobroth dilution; for MIC K.pneumoniae: CLSI macrobroth dilution, 5 x 10^5 CFU/mL
Summary of the method: as §1

E.coli ATCC 25922 = format: cell-based, Escherichia coli; conditions: ATCC 25922, Mueller-Hinton broth, 24 hr, 37°C, without replication; for MIC E.coli in the presence of 4% bovine serum albumin: 4% BSA added, macrobroth dilution; for MIC E.coli: CLSI macrobroth dilution, 5 x 10^5 CFU/mL
Summary of the method: as §1

E.coli CAN-ICU 61714 = format: cell-based, Escherichia coli; conditions: CAN-ICU 61714, Mueller-Hinton broth, 24 hr, 37°C, without replication; for MIC E.coli in the presence of 4% bovine serum albumin: 4% BSA added, macrobroth dilution; for MIC E.coli: CLSI macrobroth dilution, 5 x 10^5 CFU/mL
Summary of the method: as §1

E.coli CAN-ICU 63074 = format: cell-based, Escherichia coli; conditions: CAN-ICU 63074, Mueller-Hinton broth, 24 hr, 37°C, without replication; for MIC E.coli in the presence of 4% bovine serum albumin: 4% BSA added, macrobroth dilution; for MIC E.coli: CLSI macrobroth dilution, 5 x 10^5 CFU/mL
Summary of the method: as §1

E. faecium ATCC 27270 = format: cell-based; conditions: ATCC 27270, Mueller-Hinton broth, 24 hr, 37°C, without replication; for MIC E. faecium in the presence of 4% bovine serum albumin: 4% BSA added, macrobroth dilution; for MIC E. faecium: CLSI macrobroth dilution, 5 x 10^5 CFU/mL
Summary of the method: as §1

CCCCCCCCCCCCCCCC[N+](C)(C)C.[Cl-] [CTAC, Cetyltrimethylammonium chloride, reference compound]
8 µg/mL: MIC S.pneumoniae in the presence of 4% bovine serum albumin (S.pneumoniae ATCC 49619)
1 µg/mL: MIC S.aureus (S.aureus ATCC 29213) | MIC MRSA (MRSA ATCC 33592) | MIC E. faecalis (E. faecalis ATCC 29212)
16 µg/mL: MIC MSSE in the presence of 4% bovine serum albumin (MSSE 81388 CANWARD 2008) | MIC K.pneumoniae (K.pneumoniae ATCC 13883) | MIC E.coli (E.coli ATCC 25922) | MIC E.coli (E.coli CAN-ICU 63074)
64 µg/mL: MIC P.aeruginosa [1] | MIC E. faecium in the presence of 4% bovine serum albumin (E. faecium ATCC 27270)
128 µg/mL: MIC MRSE in the presence of 4% bovine serum albumin (MRSE CAN-ICU 61589) | MIC P.aeruginosa (P.aeruginosa ATCC 27853)
0.5 µg/mL: MIC MSSE (MSSE 81388 CANWARD 2008) | MIC E. faecium (E. faecium ATCC 27270)
32 µg/mL: MIC S.aureus in the presence of 4% bovine serum albumin (S.aureus ATCC 29213) | MIC MRSA in the presence of 4% bovine serum albumin (MRSA ATCC 33592) | MIC E. faecalis in the presence of 4% bovine serum albumin (E. faecalis ATCC 29212) | MIC S. maltophilia [2] | MIC A. baumannii [3] | MIC E.coli (E.coli CAN-ICU 61714)
>512 µg/mL: MIC P.aeruginosa in the presence of 4% bovine serum albumin (P.aeruginosa ATCC 27853)
512 µg/mL: MIC P.aeruginosa in the presence of 4% bovine serum albumin [1] | MIC S. maltophilia in the presence of 4% bovine serum albumin [2] | MIC A. baumannii in the presence of 4% bovine serum albumin [3] | MIC K.pneumoniae in the presence of 4% bovine serum albumin (K.pneumoniae ATCC 13883) | MIC E.coli in the presence of 4% bovine serum albumin (E.coli ATCC 25922) | MIC E.coli in the presence of 4% bovine serum albumin (E.coli CAN-ICU 61714) | MIC E.coli in the presence of 4% bovine serum albumin (E.coli CAN-ICU 63074)
2 µg/mL: MIC MRSE (MRSE CAN-ICU 61589) | MIC S.pneumoniae (S.pneumoniae ATCC 49619)

NCCCCN(CC(N)=O)C(=O)CNC(=O)CN(CCCCN)C(=O)CCC(F)(F)C(F)(F)C(F)(F)C(F)(F)C(F)(F)C(F)(F)C(F)(F)C(F)(F)F [F11-NlysGNlys]
32 µg/mL: MIC S.aureus (S.aureus ATCC 29213) | MIC MSSE (MSSE 81388 CANWARD 2008) | MIC MRSE (MRSE CAN-ICU 61589)
256 µg/mL: MIC S.aureus in the presence of 4% bovine serum albumin (S.aureus ATCC 29213) | MIC MRSA in the presence of 4% bovine serum albumin (MRSA ATCC 33592) | MIC MRSE in the presence of 4% bovine serum albumin (MRSE CAN-ICU 61589) | MIC E. faecalis in the presence of 4% bovine serum albumin (E. faecalis ATCC 29212) | MIC S.pneumoniae (S.pneumoniae ATCC 49619) | MIC E. faecium in the presence of 4% bovine serum albumin (E. faecium ATCC 27270)
64 µg/mL: MIC MRSA (MRSA ATCC 33592) | MIC E. faecalis (E. faecalis ATCC 29212) | MIC E. faecium (E. faecium ATCC 27270)
>512 µg/mL: MIC P.aeruginosa in the presence of 4% bovine serum albumin (P.aeruginosa ATCC 27853) | MIC P.aeruginosa in the presence of 4% bovine serum albumin [1] | MIC S. maltophilia in the presence of 4% bovine serum albumin [2] | MIC S. maltophilia [2] | MIC A. baumannii in the presence of 4% bovine serum albumin [3] | MIC A. baumannii [3] | MIC K.pneumoniae in the presence of 4% bovine serum albumin (K.pneumoniae ATCC 13883) | MIC K.pneumoniae (K.pneumoniae ATCC 13883) | MIC E.coli in the presence of 4% bovine serum albumin (E.coli CAN-ICU 63074)
128 µg/mL: MIC MSSE in the presence of 4% bovine serum albumin (MSSE 81388 CANWARD 2008)
512 µg/mL: MIC S.pneumoniae in the presence of 4% bovine serum albumin (S.pneumoniae ATCC 49619) | MIC P.aeruginosa (P.aeruginosa ATCC 27853) | MIC P.aeruginosa [1] | MIC E.coli in the presence of 4% bovine serum albumin (E.coli ATCC 25922) | MIC E.coli (E.coli ATCC 25922) | MIC E.coli in the presence of 4% bovine serum albumin (E.coli CAN-ICU 61714) | MIC E.coli (E.coli CAN-ICU 61714) | MIC E.coli (E.coli CAN-ICU 63074)

NCCCCN(CC(N)=O)C(=O)CN(CCCCN)C(=O)CN(CCCCN)C(=O)CCC(F)(F)C(F)(F)C(F)(F)C(F)(F)C(F)(F)C(F)(F)C(F)(F)C(F)(F)F [F11-NlysNlysNlys]
32 µg/mL: MIC S.aureus (S.aureus ATCC 29213) | MIC MRSA (MRSA ATCC 33592) | MIC MSSE (MSSE 81388 CANWARD 2008) | MIC MRSE (MRSE CAN-ICU 61589)
512 µg/mL: MIC E. faecalis in the presence of 4% bovine serum albumin (E. faecalis ATCC 29212) | MIC S.pneumoniae in the presence of 4% bovine serum albumin (S.pneumoniae ATCC 49619) | MIC P.aeruginosa in the presence of 4% bovine serum albumin (P.aeruginosa ATCC 27853) | MIC P.aeruginosa in the presence of 4% bovine serum albumin [1] | MIC E.coli in the presence of 4% bovine serum albumin (E.coli CAN-ICU 63074)
>512 µg/mL: MIC S. maltophilia in the presence of 4% bovine serum albumin [2] | MIC S. maltophilia [2] | MIC A. baumannii in the presence of 4% bovine serum albumin [3] | MIC A. baumannii [3] | MIC K.pneumoniae in the presence of 4% bovine serum albumin (K.pneumoniae ATCC 13883) | MIC K.pneumoniae (K.pneumoniae ATCC 13883)
64 µg/mL: MIC E. faecalis (E. faecalis ATCC 29212) | MIC E.coli (E.coli ATCC 25922) | MIC E.coli (E.coli CAN-ICU 61714) | MIC E. faecium (E. faecium ATCC 27270)
256 µg/mL: MIC MRSA in the presence of 4% bovine serum albumin (MRSA ATCC 33592) | MIC MRSE in the presence of 4% bovine serum albumin (MRSE CAN-ICU 61589) | MIC P.aeruginosa [1] | MIC E.coli in the presence of 4% bovine serum albumin (E.coli ATCC 25922) | MIC E.coli in the presence of 4% bovine serum albumin (E.coli CAN-ICU 61714) | MIC E. faecium in the presence of 4% bovine serum albumin (E. faecium ATCC 27270)
128 µg/mL: MIC S.aureus in the presence of 4% bovine serum albumin (S.aureus ATCC 29213) | MIC MSSE in the presence of 4% bovine serum albumin (MSSE 81388 CANWARD 2008) | MIC S.pneumoniae (S.pneumoniae ATCC 49619) | MIC P.aeruginosa (P.aeruginosa ATCC 27853) | MIC E.coli (E.coli CAN-ICU 63074)
